# Results taken from patent US20260116868A1 (Arcus Biosciences, Inc., priority 2023, published 2026).
# Molecular target: T1, Cbl-b (Homo sapiens, UniProt Q13191)
# T1 construct: biotin (biotinylated protein)
# Assay: Cbl-b probe displacement HTRF binding assay
# Conditions: 0.4 nM Cbl-b, 150 nM BODIPY probe
# Method in brief: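 Compound competes with BODIPY probe (150 nM) for biotinylated Cbl-b (0.4 nM) in HEPES/NaCl/Triton/TCEP/BSA buffer; 60 min preincubation, 15 min with probe, room temperature. Tb-streptavidin HTRF read; % displacement vs DMSO and no-protein controls, IC50 from four-parameter fit.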
# T1 sequence (Q13191 whole entry, species assumed): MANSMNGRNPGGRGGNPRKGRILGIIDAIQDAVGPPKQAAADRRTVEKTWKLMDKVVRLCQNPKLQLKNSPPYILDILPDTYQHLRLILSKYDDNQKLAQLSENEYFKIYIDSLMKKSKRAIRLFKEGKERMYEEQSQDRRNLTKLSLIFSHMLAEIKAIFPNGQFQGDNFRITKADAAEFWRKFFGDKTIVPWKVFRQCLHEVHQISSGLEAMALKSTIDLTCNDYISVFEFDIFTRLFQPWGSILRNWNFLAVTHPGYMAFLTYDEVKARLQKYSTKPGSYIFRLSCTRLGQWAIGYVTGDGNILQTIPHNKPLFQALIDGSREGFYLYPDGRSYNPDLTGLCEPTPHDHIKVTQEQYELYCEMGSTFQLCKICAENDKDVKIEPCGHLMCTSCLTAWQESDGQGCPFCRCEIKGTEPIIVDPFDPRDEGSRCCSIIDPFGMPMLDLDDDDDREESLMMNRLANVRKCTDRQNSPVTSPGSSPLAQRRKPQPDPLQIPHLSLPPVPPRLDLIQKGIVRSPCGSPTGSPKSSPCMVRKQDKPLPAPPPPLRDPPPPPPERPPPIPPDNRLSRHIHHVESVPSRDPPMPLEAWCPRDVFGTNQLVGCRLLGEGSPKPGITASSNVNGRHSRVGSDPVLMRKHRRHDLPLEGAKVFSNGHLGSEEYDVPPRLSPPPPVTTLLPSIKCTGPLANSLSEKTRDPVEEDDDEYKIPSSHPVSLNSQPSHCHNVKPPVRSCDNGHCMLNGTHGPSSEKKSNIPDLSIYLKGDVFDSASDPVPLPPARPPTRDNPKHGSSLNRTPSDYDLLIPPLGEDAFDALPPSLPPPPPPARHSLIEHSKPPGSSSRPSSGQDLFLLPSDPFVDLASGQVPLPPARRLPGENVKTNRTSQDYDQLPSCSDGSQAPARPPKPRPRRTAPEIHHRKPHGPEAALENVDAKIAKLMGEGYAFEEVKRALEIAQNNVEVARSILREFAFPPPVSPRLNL
row,IC50 [nM],Compound
1,< 100,CO[C@@H](C)CNCc1cc(C(=O)Nc2cc(-c3ccc(C#N)cc3C(=O)N3CC(F)(F)C3)cc(OC3CC3)n2)c(=O)n(C2CC2)c1 [Example 195]
2,< 100,CO[C@@H](C)CNCc1cc(C(=O)Nc2cc(-c3ccc(C)cc3C(=O)N3CC(F)(F)C3)cc(OCC(F)F)n2)c(=O)n(C2CC2)c1 [Example 349]
3,< 100,COc1ccc(-c2cc(NC(=O)c3cc(CNCC(C)C)cn(C)c3=O)nc(OC(C)C)c2)c(C(=O)N2CC(F)C2)c1 [Example 317]
4,< 100,"COc1ccc(-c2cc(NC(=O)c3cc(CNCC(C)C)cn(C4CC4)c3=O)nc(C3CC3)c2)c(C(=O)N2CC(F)(F)C2)c1 [Example 151, N-(6-Cyclopropyl-4-{2-[(3,3-difluoro-1-azetidinyl)carbonyl]-4-methoxyphenyl}-2-pyridyl)-1-cyclopropyl-5-[(isobutylamino)methyl]-2-oxo-1,2-dihydronicotinamide]"
5,< 100,COCCNCc1cc(C(=O)Nc2cc(-c3ccc(F)cc3C(=O)N3CC(F)(F)C3)cc(C3CC3)n2)c(=O)n(C2CC2)c1 [Example 403]
6,< 100,CC(C)Nc1cc(-c2ccc(Cl)cc2C(=O)N2CC(F)(F)C2)cc(NC(=O)c2cc(CN[C@@H](C)C3CC3)cn(C3CC3)c2=O)n1 [Example 219]
7,< 100,COCCNCc1cc(C(=O)Nc2cc(-c3ccc(Cl)cc3C(=O)N3CC(C#N)C3)cc(C3CC3)n2)c(=O)n(C2CC2)c1 [Example 303]
8,< 100,CO[C@@H](C)[C@H](C)NCc1cc(C(=O)Nc2cc(-c3c(F)cc(C#N)cc3C(=O)N3CC(F)(F)C3)cc(OC(C)C)n2)c(=O)n(C)c1 [Example 226]
9,< 100,CCNc1cc(-c2ccc(Cl)cc2C(=O)N2CC(F)(F)C2)cc(NC(=O)c2cc(CNCC(C)C)cn(C)c2=O)n1 [Example 184]
10,< 100,COc1ccc(-c2cc(NC(=O)c3cc(CN[C@@H](C)C4CC4)cn(C4CC4)c3=O)nc(C3CC3)c2)c(C(=O)N2CC(F)C2)c1 [Example 291]
11,< 100,"CCOc1cc(-c2c(F)cc(C#N)cc2C(=O)N2CC(F)(F)C2)cc(NC(=O)c2cc(CN[C@@H](C)C3CC3)cn(C)c2=O)n1 [Example 119, N-[4-[4-cyano-2-(3,3-difluoroazetidine-1-carbonyl)-6-fluorophenyl]-6-ethoxypyridin-2-yl]-5-[[[(1S)-1-cyclopropylethyl]amino]methyl]-1-methyl-2-oxopyridine-3-carboxamide]"
12,< 100,COc1ccc(-c2cc(NC(=O)c3cc(CNCC(C)C)cn(C4CC4)c3=O)nc(OC(C)C)c2)c(C(=O)N2CC(F)(F)C2)c1 [Example 289]
13,< 100,CO[C@@H](C)CNCc1cc(C(=O)Nc2cc(-c3cc(Cl)c(Cl)cc3C(=O)N3CC(F)(F)C3)cc(C3CC3)n2)c(=O)n(C2CC2)c1 [Example 411]
14,< 100,"CCOc1cc(-c2ccc(OC(F)F)cc2C(=O)N2CC(F)C2)cc(NC(=O)c2cc(CNC[C@H](C)OC)cn(C3CC3)c2=O)n1 [Example 104, N-(4-{4-Difluoromethoxy-2-[(3-fluoro-1-azetidinyl)carbonyl]phenyl}-6-ethoxy-2-pyridyl)-5-{[(S)-2-methoxypropylamino]methyl}-1-cyclopropyl-2-oxo-1,2-dihydronicotinamide]"
15,< 100,"CO[C@@H](C)CNCc1cc(C(=O)Nc2cc(-c3ccc(OC(F)F)cc3C(=O)N3CC(F)(F)C3)cc(OC(C)C)n2)c(=O)n(C)c1 [Example 113, N-(4-{2-[(3,3-difluoro-1-azetidinyl)carbonyl]-4-difluoromethoxyphenyl}-6-isopropoxy-2-pyridyl)-5-{[(S)-2-methoxypropylamino]methyl}-1-methyl-2-oxo-1,2-dihydronicotinamide]"
16,< 100,CC(C)CNCc1cc(C(=O)Nc2cc(-c3ccc(C#N)cc3C(=O)N3CC(F)(F)C3)cc(C3CC3)n2)c(=O)n(C)c1 [Example 175]
17,< 100,"CO[C@@H](C)CNCc1cc(C(=O)Nc2cc(-c3ccc(Cl)cc3C(=O)N3CCC3)cc(C3CC3)n2)c(=O)n(C2CC2)c1 [Example 156, N-(4-{2-[(1-Azetidinyl)carbonyl]-4-chlorophenyl}-6-cyclopropyl-2-pyridyl)-1-cyclopropyl-5-{[(S)-2-methoxypropylamino]methyl}-2-oxo-1,2-dihydronicotinamide]"
18,< 100,O=C(Nc1cc(-c2ccc(OC(F)F)cc2C(=O)N2CC(F)(F)C2)cc(C2CC2)n1)c1cc(CNC[C@@H]2CCCCO2)cn(C2CC2)c1=O [Example 388]
19,< 100,COCCNCc1cc(C(=O)Nc2cc(-c3c(Cl)cc(Cl)cc3C(=O)N3CC(F)(F)C3)cc(C3CC3)n2)c(=O)n(C2CC2)c1 [Example 405]
20,< 100,C[C@H](NCc1cc(C(=O)Nc2cc(-c3c(F)cc(C#N)cc3C(=O)N3CC(F)(F)C3)cc(C3CC3)n2)c(=O)n(C2CC2)c1)C1CC1 [Example 232]
21,< 100,CCNc1cc(-c2ccc(Cl)cc2C(=O)N2CC(F)(F)C2)cc(NC(=O)c2cc(CNC[C@@H]3CCCO3)cn(C)c2=O)n1 [Example 182]

row,IC50 [nM],Compound
1,< 100,COc1ccc(-c2cc(NC(=O)c3cc(CN[C@@H](C)C4CCC4)cn(C4CC4)c3=O)nc(C3CC3)c2)c(C(=O)N2CC(F)(F)C2)c1 [Example 295]
2,< 100,CC(C)Oc1cc(-c2c(F)cc(C#N)cc2C(=O)N2CC(F)(F)C2)cc(NC(=O)c2cc(CN[C@@H](C)C3CCC3)cn(C3CC3)c2=O)n1 [Example 126]
3,< 100,"CC(C)Oc1cc(-c2ccc(C#N)cc2C(=O)N2CC(F)(F)C2)cc(NC(=O)c2cc(CNC[C@@H]3CCCO3)cn(C3CC3)c2=O)n1 [Example 96, N-(4-{4-cyano-2-[(3,3-difluoro-1-azetidinyl)carbonyl]phenyl}-6-isopropoxy-2-pyridyl)-5-[({[(S)-tetrahydro-2-furyl]methyl}amino)methyl]-1-cyclopropyl-2-oxo-1,2-dihydronicotinamide]"
4,< 100,CO[C@@H](C)CNCc1cc(C(=O)Nc2cc(-c3ccc(OC(F)F)cc3C(=O)N3CC(F)(F)C3)cc(NC(C)C)n2)c(=O)n(C2CC2)c1 [Example 332]
5,< 100,C[C@@H](CC(F)(F)F)NCc1cc(C(=O)Nc2cc(-c3ccc(C#N)cc3C(=O)N3CC(F)(F)C3)cc(C3CC3)n2)c(=O)n(C2CC2)c1 [Example 243]
6,< 100,"CC(C)Oc1cc(-c2ccc(F)cc2C(=O)N2CC(F)(F)C2)cc(NC(=O)c2cc(CNCC3CC3)cn(C3CC3)c2=O)n1 [Example 139, N-(4-{2-[(3,3-difluoro-1-azetidinyl)carbonyl]-4-fluorophenyl}-6-isopropoxy-2-pyridyl)-1-cyclopropyl-5-{[(cyclopropylmethyl)amino]methyl}-2-oxo-1,2-dihydronicotinamide]"
7,< 100,COc1ccc(-c2cc(NC(=O)c3cc(CNC[C@H](C)OC)cn(C)c3=O)nc(C3CC3)c2)c(C(=O)N2CC(F)C2)c1 [Example 301]
8,< 100,CO[C@H]1CCC[C@@H]1NCc1cc(C(=O)Nc2cc(-c3ccc(C#N)cc3C(=O)N3CC(F)(F)C3)cc(C3CC3)n2)c(=O)n(C2CC2)c1 [Example 363]
9,< 100,"CC(C)Oc1cc(-c2ccc(C#N)cc2C(=O)N2CC(F)(F)C2)cc(NC(=O)c2cc(CN[C@@H](C)C3CCC3)cn(C3CC3)c2=O)n1 [Example 143, N-(4-{4-cyano-2-[(3,3-difluoro-1-azetidinyl)carbonyl]phenyl}-6-isopropoxy-2-pyridyl)-5-{[(S)-1-cyclobutylethylamino]methyl}-1-cyclopropyl-2-oxo-1,2-dihydronicotinamide]"
10,< 100,Cn1cc(CNC[C@@H]2CCCCO2)cc(C(=O)Nc2cc(-c3ccc(C#N)cc3C(=O)N3CC(F)(F)C3)cc(C3CC3)n2)c1=O [Example 190]
11,< 100,COC[C@H](C)NC(C)c1cc(C(=O)Nc2cc(-c3ccc(C#N)cc3C(=O)N3CC(F)(F)C3)cc(C3CC3)n2)c(=O)n(C2CC2)c1 (stereo partly drawn) [Example 335]
12,< 100,COc1ccc(-c2cc(NC(=O)c3cc(CN[C@@H](C)C4CCC4)cn(C)c3=O)nc(C3CC3)c2)c(C(=O)N2CC(F)C2)c1 [Example 296]
13,< 100,CCOc1cc(-c2c(F)cc(Cl)cc2C(=O)N2CC(F)(F)C2)cc(NC(=O)c2cc(CNC[C@@H]3CCCO3)cn(C3CC3)c2=O)n1 [Example 210]
14,< 100,"CO[C@@H](C)CNCc1cc(C(=O)Nc2cc(-c3ccc(Cl)cc3C(=O)N3CC(C#N)C3)cc(C3CC3)n2)c(=O)n(C2CC2)c1 [Example 155, N-(4-{4-Chloro-2-[(3-cyano-1-azetidinyl)carbonyl]phenyl}-6-cyclopropyl-2-pyridyl)-1-cyclopropyl-5-{[(S)-2-methoxypropylamino]methyl}-2-oxo-1,2-dihydronicotinamide]"
15,< 100,"CO[C@@H](C)CNCc1cc(C(=O)Nc2cc(-c3ccc(F)cc3C(=O)N3CC(F)(F)C3)cc(OC(C)C)n2)c(=O)n(C2CC2)c1 [Example 137, N-(4-{2-[(3,3-difluoro-1-azetidinyl)carbonyl]-4-fluorophenyl}-6-isopropoxy-2-pyridyl)-1-cyclopropyl-5-{[(S)-2-methoxypropylamino]methyl}-2-oxo-1,2-dihydronicotinamide]"
16,< 100,N#Cc1ccc(-c2cc(NC(=O)c3cc(CNCC4CC4)cn(C4CC4)c3=O)nc(C3CC3)c2)c(C(=O)N2CC(F)(F)C2)c1 [Example 383]
17,< 100,CO[C@@H](C)CNCc1cc(C(=O)Nc2cc(-c3ccc(F)cc3C(=O)N3CC(F)(F)C3)cc(C3CC3)n2)c(=O)n(C2CC2)c1 [Example 360]
18,< 100,C[C@H](NCc1cc(C(=O)Nc2cc(-c3ccc(C#N)cc3C(=O)N3CC(F)(F)C3)cc(C3CC3)n2)c(=O)n(C2CC2)c1)C1CCCC1 [Example 358]
19,< 100,Cc1ccc(-c2cc(NC(=O)c3cc(CNCC(C)C)cn(C4CC4)c3=O)nc(OC(C)C)c2)c(C(=O)N2CC(F)C2)c1 [Example 287]
20,< 100,CC(C)Oc1cc(-c2ccc(OC(F)F)cc2C(=O)N2CC(F)C2)cc(NC(=O)c2cc(CN[C@@H](C)C3CCC3)cn(C)c2=O)n1 [Example 250]
21,< 100,COc1ccc(-c2cc(NC(=O)c3cc(CN[C@@H](C)C4CCC4)cn(C)c3=O)nc(OC(C)C)c2)c(C(=O)N2CC(F)(F)C2)c1 [Example 292]
